Among the data in PubChem BioAssay AID330 (DTP/NCI, 2004) are T/C values, retold here.

For this experiment, the system named is P388 leukemia ip, CD2F1 mice, survival T/C. Briefly: NCI In Vivo Anticancer Drug Screen. Data for tumor model P388 Leukemia (intraperitoneal) in CD2F1 (CDF1) mice. As to conditions: endpoint: median survival time, higher = longer survival. In a few lines: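 Mice carrying the transplanted tumor received test compound or vehicle. Survival was recorded in each group, and the value is the treated-group measurement divided by that of the vehicle-treated control group.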

The structures appear in SMILES notation. “And” between values parts separate entries of the source, which are not always exact repeats. Equal values may be shown once. Toxic doses and inconclusive results are not listed.

Consider `CCCCCCCC(=O)OC(C)C1/C=C/C=C\C(=O)O[C@@H]2C[C@H]3OC4C5OC5(C)CCC4(COC(=O)C4O[C@@]4(C)C(OC(=O)CCCCCCC)CO1)[C@]2(C)[C@]31CO1` (some centres undefined), for which the T/C is 102 % of control (dose: 1.25 mg/kg/injection, schedule: Q01DX009 (ip), vehicle: Klucel (hydroxypropylcellulose) (HPC)); 106 % of control (dose: 2.5 mg/kg/injection, schedule: Q01DX009 (ip), vehicle: Klucel (hydroxypropylcellulose) (HPC)); 99 % of control and 106 % of control (dose: 5.0 mg/kg/injection, schedule: Q01DX009 (ip), vehicle: Klucel (hydroxypropylcellulose) (HPC)); 98 % of control and 101 % of control (dose: 10.0 mg/kg/injection, schedule: Q01DX009 (ip), vehicle: Klucel (hydroxypropylcellulose) (HPC)); 110 % of control (dose: 20.0 mg/kg/injection, schedule: Q01DX009 (ip), vehicle: Klucel (hydroxypropylcellulose) (HPC)); 90 % of control (dose: 40.0 mg/kg/injection, schedule: Q01DX005 (ip), vehicle: Klucel (hydroxypropylcellulose) (HPC)). The T/C (dose: 40.0 mg/kg/injection, schedule: Q01DX009 (ip), vehicle: Klucel (hydroxypropylcellulose) (HPC)) is 99 % of control; the T/C (dose: 80.0 mg/kg/injection, schedule: Q01DX005 (ip), vehicle: Klucel (hydroxypropylcellulose) (HPC)) was 90 % of control; the T/C (dose: 150.0 mg/kg/injection, schedule: Q01DX005 (ip), vehicle: Klucel (hydroxypropylcellulose) (HPC)) is 91 % of control; the T/C (dose: 160.0 mg/kg/injection, schedule: Q01DX005 (ip), vehicle: Klucel (hydroxypropylcellulose) (HPC)) is 108 % of control; the T/C (dose: 300.0 mg/kg/injection, schedule: Q01DX005 (ip), vehicle: Klucel (hydroxypropylcellulose) (HPC)) is 100 % of control.

In the case of `COC(=O)OC(C#N)c1ccccc1[N+](=O)[O-]` (centres undefined), the T/C (dose: 1.56 mg/kg/injection, schedule: Q01DX009 (ip), vehicle: saline) is 88 % of control; the T/C (dose: 3.12 mg/kg/injection, schedule: Q01DX009 (ip), vehicle: saline) was 98 % of control; the T/C (dose: 6.25 mg/kg/injection, schedule: Q01DX009 (ip), vehicle: saline) is 105 % of control; the T/C (dose: 6.25 mg/kg/injection, schedule: Q01DX009 (ip), vehicle: suspension in saline) is 88 % of control; the T/C (dose: 200.0 mg/kg/injection, schedule: Q01DX009 (ip), vehicle: saline) is 94 % of control.

For the molecule `O=CC(CO)C(C=O)n1ncc2ccccc21` (centres undefined), the T/C was 120 % of control (dose: 4.0 mg/kg/injection, schedule: Q01DX009 (ip), vehicle: saline with Tween-80); 108 % of control (dose: 8.0 mg/kg/injection, schedule: Q01DX001 (ip), vehicle: suspension in saline); 107 % of control (dose: 16.0 mg/kg/injection, schedule: Q01DX001 (ip), vehicle: saline); 98 % of control (dose: 16.0 mg/kg/injection, schedule: Q01DX001 (ip), vehicle: suspension in saline); 119 % of control (dose: 16.0 mg/kg/injection, schedule: Q01DX009 (ip), vehicle: saline with Tween-80); 107 % of control and 116 % of control (dose: 32.0 mg/kg/injection, schedule: Q01DX001 (ip), vehicle: saline). The T/C is 94 % of control (dose: 32.0 mg/kg/injection, schedule: Q01DX001 (ip), vehicle: suspension in saline); 172 % of control (dose: 64.0 mg/kg/injection, schedule: Q01DX001 (ip), vehicle: saline); 108 % of control (dose: 64.0 mg/kg/injection, schedule: Q01DX001 (ip), vehicle: suspension in saline).

Turning to `OCC1OC(n2cnc3c2NC=NC[C@H]3O)CC1O` (some centres undefined), the T/C reads like this: (dose: 0.05 mg/kg/injection, schedule: Q03HX024 (ip), vehicle: clinical formulation) 100 % of control; (dose: 0.05 mg/kg/injection, schedule: Q03HX024 (ip), vehicle: water) 99 % of control; (dose: 0.1 mg/kg/injection, schedule: Q03HX024 (ip), vehicle: clinical formulation) 100 % of control; (dose: 0.1 mg/kg/injection, schedule: Q03HX024 (ip), vehicle: water) 100 % of control; (dose: 0.12 mg/kg/injection, schedule: Q01DX009 (ip), vehicle: water) 111 % of control; (dose: 0.13 mg/kg/injection, schedule: Q01DX009 (ip), vehicle: saline) 112 % of control. The T/C runs as follows: (dose: 0.2 mg/kg/injection, schedule: Q03HX024 (ip), vehicle: clinical formulation) 100 % of control; (dose: 0.2 mg/kg/injection, schedule: Q03HX024 (ip), vehicle: water) 100 % of control; (dose: 0.25 mg/kg/injection, schedule: Q01DX005 (ip), vehicle: water) 101 % of control and 102 % of control; (dose: 0.25 mg/kg/injection, schedule: Q01DX009 (ip), vehicle: saline) 100 % of control and 119 % of control; (dose: 0.25 mg/kg/injection, schedule: Q01DX009 (ip), vehicle: water) 103 % of control and 111 % of control; (dose: 0.25 mg/kg/injection, schedule: Q04DX002 (ip), vehicle: saline) 99 % of control and 112 % of control. The T/C is, setting by setting: (dose: 0.25 mg/kg/injection, schedule: Q04DX003 (ip), vehicle: saline) 101 % of control; (dose: 0.38 mg/kg/injection, schedule: Q01DX009 (ip), vehicle: saline) 107 % of control; (dose: 0.5 mg/kg/injection, schedule: Q01DX005 (ip), vehicle: water) 99 % of control and 101 % of control; (dose: 0.5 mg/kg/injection, schedule: Q01DX009 (ip), vehicle: saline) 109 % of control and 110 % of control; (dose: 0.5 mg/kg/injection, schedule: Q01DX009 (ip), vehicle: water) 99 % of control and 118 % of control; (dose: 0.5 mg/kg/injection, schedule: Q04DX002 (ip), vehicle: saline) 106 % of control and 109 % of control. In addition, the T/C reads like this: (dose: 0.5 mg/kg/injection, schedule: Q04DX003 (ip), vehicle: saline) 101 % of control; (dose: 0.66 mg/kg/injection, schedule: Q01DX009 (ip), vehicle: saline) 92 % of control; (dose: 0.75 mg/kg/injection, schedule: Q01DX009 (ip), vehicle: saline) 104 % of control; (dose: 1.0 mg/kg/injection, schedule: Q01DX005 (ip), vehicle: water) 102 % of control; (dose: 1.0 mg/kg/injection, schedule: Q01DX009 (ip), vehicle: saline) 107 % of control and 94 % of control; (dose: 1.0 mg/kg/injection, schedule: Q01DX009 (ip), vehicle: water) 101 % of control. The T/C runs as follows: (dose: 1.5 mg/kg/injection, schedule: Q01DX009 (ip), vehicle: saline) 103 % of control; (dose: 2.0 mg/kg/injection, schedule: Q01DX005 (ip), vehicle: water) 102 % of control; (dose: 2.0 mg/kg/injection, schedule: Q01DX009 (ip), vehicle: saline) 102 % of control; (dose: 2.0 mg/kg/injection, schedule: Q01DX009 (ip), vehicle: water) 86 % of control; (dose: 3.0 mg/kg/injection, schedule: Q01DX009 (ip), vehicle: saline) 107 % of control; (dose: 4.0 mg/kg/injection, schedule: Q01DX005 (ip), vehicle: water) 104 % of control. The T/C (dose: 4.0 mg/kg/injection, schedule: Q01DX009 (ip), vehicle: water) is 86 % of control.

Take `CCOC(=O)Cn1/c(=N/N=C/c2ccc([N+](=O)[O-])o2)sc2cc(OC)ccc21`: the T/C by setting is: (dose: 3.75 mg/kg/injection, schedule: Q01DX005 (ip), vehicle: saline with Tween-80) 97 % of control; (dose: 7.5 mg/kg/injection, schedule: Q01DX005 (ip), vehicle: saline with Tween-80) 90 % of control; (dose: 60.0 mg/kg/injection, schedule: Q01DX005 (ip), vehicle: Klucel (hydroxypropylcellulose) (HPC)) 87 % of control; (dose: 240.0 mg/kg/injection, schedule: Q01DX005 (ip), vehicle: Klucel (hydroxypropylcellulose) (HPC)) 86 % of control.

Regarding `Cc1ccccc1CN1CC2=C(CCN(Cc3ccccc3)C2=O)N2CCN=C12`, the T/C runs as follows: (dose: 50.0 mg/kg/injection, schedule: Q01DX005 (ip), vehicle: saline with Tween-80) 96 % of control; (dose: 100.0 mg/kg/injection, schedule: Q01DX005 (ip), vehicle: saline with Tween-80) 96 % of control; (dose: 200.0 mg/kg/injection, schedule: Q01DX005 (ip), vehicle: saline with Tween-80) 100 % of control.

Consider `CN1CCCSC1=S`, for which the T/C (dose: 6.25 mg/kg/injection, schedule: Q01DX009 (ip), vehicle: Klucel (hydroxypropylcellulose) (HPC)) is 111 % of control; the T/C (dose: 12.5 mg/kg/injection, schedule: Q01DX009 (ip), vehicle: Klucel (hydroxypropylcellulose) (HPC)) is 97 % of control; the T/C (dose: 25.0 mg/kg/injection, schedule: Q01DX009 (ip), vehicle: Klucel (hydroxypropylcellulose) (HPC)) is 106 % of control.

Turning to `COC(=O)NC1=Nc2ccccc2N(C(=O)C(C)C)S1`, the T/C is 100 % of control (dose: 50.0 mg/kg/injection, schedule: Q01DX005 (ip), vehicle: Klucel (hydroxypropylcellulose) (HPC)); 101 % of control (dose: 100.0 mg/kg/injection, schedule: Q01DX005 (ip), vehicle: Klucel (hydroxypropylcellulose) (HPC)); 97 % of control (dose: 200.0 mg/kg/injection, schedule: Q01DX005 (ip), vehicle: Klucel (hydroxypropylcellulose) (HPC)).
